According to patent US12728134B2, “Liquisolid pharmaceutical formulation and process for manufacturing” (RHEINISCHE FRIEDRICH-WILHELMS-UNIVERSITÄT BONN, priority 2020, dated 2026):
In brackets after ≈: the same amount, converted by molar mass. Where a name gives a salt, the structure may show the parent alone. Blank lines part the entries; values can stand above or below the compound they belong to.

Experiments:
[1] = Solubility of poorly water-soluble APIs in propylene carbonate; type: physicochemical; conditions: organic solvent or mixture, thermodynamic from solid, solvent added in 10 μl steps to about 20 mg, mean of three samples
Experimental: For a preliminary analysis, 1-2 mg of each compound was weighted in an Eppendorf tube and 1 ml propylene carbonate was added. The mixture was mixed with a metal spatula for 10 min each. The solubility of compounds, which were fully dissolved in the preliminary tests where than further analyzed. About 20 mg of each compound were used and under stirring with a metal spatula propylene carbonate was added in 10 μl steps.

[2] = Biphasic dissolution test (BiPHa+); type: in vitro ADME
Excerpt: This approach was chosen to simulate the gastrointestinal properties to obtain in vivo predictive results.
The transition to the organic phase can be understood as absorption of active substances into the blood.
To simulate the gastrointestinal properties to obtain in vivo predictive results, the pH-profile, bile salt concentration and gastrointestinal passage time were adjusted in the aqueous phase to mimic human gut conditions. An organic phase of 1-decanol above the aqueous phase imitated the fraction absorbed from the gut. As a test model, the profile of a person without prior food intake was chosen. Therefore, FaSSIF-V2 medium, which represents the bile salts concentration of a fasted human was used. […] To generate an in-situ biorelevant aqueous medium for the fasted state, biorelevant surfactants, namely sodium-taurocholate (3 mM) and lecithin (0.2 mM), were added.
Prior to the start of the experiments, both phases, 1-decanol and the acidic aqueous phase, were saturated with each other. First, the respective formulation was added (Table 2) to 50 mL HCl (0.1 M), simulating the stomach. During the first 30 min the formulation disintegrated/dispersed in 50 ml of 0.1 M HCl. After 30 min FaSSIF-V2 concentrate (sodium-taurocholate and lecithin) was added simultaneously to the addition of citrate-phosphate buffer (tri-potassium phosphate and potassium citrate) resulting in a first pH-shift from pH 1 to pH 5.5, simulating the duodenum. Thereafter, 50 mL 1-decanol was added. […] The adjusted buffers were titrated by 0.1 M NaOH and 0.1 M HCl (pH 5.5-6.8). The whole dissolution took 4.5 hours.
For each compound, the biphasic dissolution test was performed in triplicate. In order to evaluate the liquisolid formulations in terms of their performance, each liquisolid formulation was compared to a respective commercially available formulation.
The market formulations (Originator) of the selected APIs were tested additionally to compare the performance against established marked products.

physchem = conditions: organic solvent or mixture, thermodynamic from solid
Experimental: Therefore, 1 mg of each compound was weighted in an Eppendorf tube and 1 ml of solvent was added. The mixture was mixed with a metal spatula for 10 min each. […] About 20 mg of each compound were used and under stirring with a metal spatula the solvent was added in 10 μl steps.

solubility [1]: 16.8 mg/mL (≈ 47.7 mM)
SMILES: COC1=CC(=O)C[C@@H](C)[C@]12Oc1c(Cl)c(OC)cc(OC)c1C2=O [Griseofulvin]

solubility [1]: 167 mg/mL
SMILES: CN(C)CCCN1c2ccccc2CCc2ccccc21 [Imipramine hydrochloride]

solubility [1]: 17.2 mg/mL (≈ 48.1 mM)
SMILES: COc1ccc2c(c1)c(CC(=O)O)c(C)n2C(=O)c1ccc(Cl)cc1 [Indomethacin]

solubility at 10 min (physchem): < 1 mg/mL | solubility [1]: 144 mg/mL (≈ 345 mM)
SMILES: COCCOC(=O)C1=C(C)NC(C)=C(C(=O)OC(C)C)C1c1cccc([N+](=O)[O-])c1 (stereo not drawn) [Nimodipine]

More lines, now with the values behind:

SMILES: CC(=O)Oc1ccc(C(c2ccc(OC(C)=O)cc2)c2ccccn2)cc1 [Bisacodyl]
solubility [1]: 91.5 mg/mL (≈ 253 mM)

SMILES: Cc1ccc(-c2cc(C(F)(F)F)nn2-c2ccc(S(N)(=O)=O)cc2)cc1 [Celecoxib]
Maximum Partitioned Drug in the Organic Phase ([2]; Market Formulation (Originator, Table 11)): 41% | Maximum Partitioned Drug in the Organic Phase ([2]; PC Silsol ® Formulation (propylene carbonate on mesoporous silica)): 54% | Maximum Partitioned Drug in the Organic Phase ([2]; PEG 400 Silsol ® Formulation): 46% | Maximum Partitioned Drug in the Organic Phase ([2]; TEG Silsol ® Formulation): 53% | result of propylene carbonate formulation compared to commercially available market formulation ([2]; same in vitro biphasic dissolution conditions, in words): even better results | solubility at 10 min (physchem; glycerol): < 1 mg/mL | solubility (physchem; polyethylene glycol 400 (PEG 400)): 230 mg/mL (≈ 603 mM) | solubility (physchem; propylene glycol (PG)): 60.3 mg/mL (≈ 158 mM) | solubility (physchem; tetraglycole (TEG)): 244 mg/mL (≈ 641 mM) | solubility [1]: 267 mg/mL (≈ 699 mM)

SMILES: CN1CCN(C2=Nc3cc(Cl)ccc3Nc3ccccc32)CC1 [Clozapine]
solubility [1]: 4.79 mg/mL (≈ 14.7 mM)

SMILES: Cc1ccc(S(=O)(=O)NC(=O)NN2CC3CCCC3C2)cc1 (stereo not drawn) [Gliclazide]
solubility [1]: 32.3 mg/mL (≈ 99.8 mM)
